In ChEMBL document CHEMBL1909046, “DrugMatrix in vitro pharmacology data”:

Experiments:
[1] = molecular target: T1, Alpha-2A adrenergic receptor (Homo sapiens, UniProt P08913); format: cell membranes, Sf9, Membrane; details: for Ki: read-out: Ki; on all read-outs here: in other assays of this panel Not Active means under 50% inhibition at 10 µM
T1 sequence (P08913 whole entry): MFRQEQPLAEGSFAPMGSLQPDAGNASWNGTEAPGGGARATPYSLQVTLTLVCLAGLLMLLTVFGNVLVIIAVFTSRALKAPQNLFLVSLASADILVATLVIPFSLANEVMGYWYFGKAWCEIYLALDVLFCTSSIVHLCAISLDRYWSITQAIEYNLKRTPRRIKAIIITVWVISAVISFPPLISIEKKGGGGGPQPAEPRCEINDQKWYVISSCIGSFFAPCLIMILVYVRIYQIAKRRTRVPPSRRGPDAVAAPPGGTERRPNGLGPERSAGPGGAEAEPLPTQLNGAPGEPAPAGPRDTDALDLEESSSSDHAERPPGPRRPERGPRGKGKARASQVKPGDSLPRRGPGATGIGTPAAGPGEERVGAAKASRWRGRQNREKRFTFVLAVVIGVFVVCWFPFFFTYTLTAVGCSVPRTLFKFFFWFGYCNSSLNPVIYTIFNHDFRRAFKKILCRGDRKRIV

[2] = molecular target: Carbonic anhydrase 2 (Homo sapiens, UniProt P00918); assay: DRUGMATRIX: Carbonic Anhydrase II enzyme inhibition (substrate: 4-Nitrophenyl acetate (4-NPA)); format: tissue-based, Erythrocyte; details: erythrocyte; Not Active = under 50% inhibition at 10 µM
[3] = molecular target: T2, Cholecystokinin receptor type A (Homo sapiens, UniProt P32238); format: cell membranes, Membrane; details: 1321-n1; further: in other assays of this panel Not Active means under 50% inhibition at 10 µM
T2 sequence (P32238 whole entry): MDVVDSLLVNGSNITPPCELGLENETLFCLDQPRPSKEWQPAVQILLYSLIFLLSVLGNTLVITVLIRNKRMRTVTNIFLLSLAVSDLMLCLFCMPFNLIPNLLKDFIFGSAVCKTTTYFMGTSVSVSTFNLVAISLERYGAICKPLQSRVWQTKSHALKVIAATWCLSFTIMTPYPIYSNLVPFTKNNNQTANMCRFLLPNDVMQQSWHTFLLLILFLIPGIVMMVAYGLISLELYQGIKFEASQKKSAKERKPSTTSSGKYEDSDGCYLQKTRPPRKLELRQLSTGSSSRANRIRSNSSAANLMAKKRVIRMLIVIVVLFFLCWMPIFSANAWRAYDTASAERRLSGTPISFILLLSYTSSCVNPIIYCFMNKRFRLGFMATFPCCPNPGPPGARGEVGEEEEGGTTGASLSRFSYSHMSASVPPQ

[4] = molecular target: D(1A) dopamine receptor (Homo sapiens, UniProt P21728); assay: DRUGMATRIX: Dopamine D1 radioligand binding (ligand: [3H] SCH-23390); format: cell membranes, CHO, Membrane; details: Not Active = under 50% inhibition at 10 µM
Chain of D(1A) dopamine receptor (P21728 whole entry): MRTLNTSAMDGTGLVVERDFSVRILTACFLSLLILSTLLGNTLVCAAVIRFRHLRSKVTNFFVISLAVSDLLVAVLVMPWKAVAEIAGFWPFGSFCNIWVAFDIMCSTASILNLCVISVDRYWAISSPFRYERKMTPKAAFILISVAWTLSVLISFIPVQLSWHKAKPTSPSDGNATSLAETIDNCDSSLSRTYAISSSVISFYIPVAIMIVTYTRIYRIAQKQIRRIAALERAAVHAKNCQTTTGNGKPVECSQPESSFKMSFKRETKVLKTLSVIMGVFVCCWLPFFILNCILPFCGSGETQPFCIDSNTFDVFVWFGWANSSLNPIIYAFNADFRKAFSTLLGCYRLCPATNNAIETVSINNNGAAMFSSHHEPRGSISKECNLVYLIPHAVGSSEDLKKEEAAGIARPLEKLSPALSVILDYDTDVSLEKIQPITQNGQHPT

[5] = DRUGMATRIX: Glutamate, NMDA, Phencyclidine radioligand binding (ligand: [3H] TCP); format: cell membranes, Rattus norvegicus, Wistar, Cerebral cortex, Membrane; details: Not Active = under 50% inhibition at 10 µM
[6] = DRUGMATRIX: Interleukin IL-1 radioligand binding (ligand: [125I] interleukin 1beta); format: cell membranes, Membrane; details: nih3t3; Not Active = under 50% inhibition at 10 µM
[7] = molecular target: T3, Cysteinyl leukotriene receptor 1 (Homo sapiens, UniProt Q9Y271); format: cell membranes, CHO-K1, Membrane; details: cho-k1; further: in other assays of this panel Not Active means under 50% inhibition at 10 µM
T3 sequence (Q9Y271 whole entry): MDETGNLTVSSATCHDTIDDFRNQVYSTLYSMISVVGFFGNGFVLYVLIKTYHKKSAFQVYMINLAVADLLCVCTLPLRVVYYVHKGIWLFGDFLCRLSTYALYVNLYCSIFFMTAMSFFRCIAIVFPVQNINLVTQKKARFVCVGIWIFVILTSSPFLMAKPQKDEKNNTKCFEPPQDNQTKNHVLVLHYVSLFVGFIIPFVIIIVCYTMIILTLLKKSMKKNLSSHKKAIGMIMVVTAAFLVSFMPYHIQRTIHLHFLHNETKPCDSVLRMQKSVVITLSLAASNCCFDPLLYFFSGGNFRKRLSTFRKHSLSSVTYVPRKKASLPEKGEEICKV

[8] = molecular target: T4, Amine oxidase [flavin-containing] A (Homo sapiens, UniProt P21397); assay: DRUGMATRIX: Monoamine Oxidase MAO-A enzyme inhibition (substrate: Kynuramine); design: species or system BTI-TN-5B1-4; details: Not Active = under 50% inhibition at 10 µM
T4 sequence (P21397 whole entry): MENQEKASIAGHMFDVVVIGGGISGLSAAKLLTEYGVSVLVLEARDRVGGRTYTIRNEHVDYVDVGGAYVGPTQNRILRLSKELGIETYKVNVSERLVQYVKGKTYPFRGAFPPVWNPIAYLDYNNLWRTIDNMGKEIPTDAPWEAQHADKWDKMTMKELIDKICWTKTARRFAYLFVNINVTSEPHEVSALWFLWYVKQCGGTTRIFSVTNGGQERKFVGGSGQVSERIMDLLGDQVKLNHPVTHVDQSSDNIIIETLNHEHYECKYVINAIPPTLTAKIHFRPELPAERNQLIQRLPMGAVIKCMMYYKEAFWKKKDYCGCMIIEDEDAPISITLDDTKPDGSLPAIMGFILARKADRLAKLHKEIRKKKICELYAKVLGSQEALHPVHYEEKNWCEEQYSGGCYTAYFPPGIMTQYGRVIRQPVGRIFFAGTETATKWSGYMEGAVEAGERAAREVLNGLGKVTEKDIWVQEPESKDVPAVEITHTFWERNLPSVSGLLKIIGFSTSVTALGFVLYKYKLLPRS

[9] = DRUGMATRIX: Phorbol Ester radioligand binding (ligand: [3H] PDBu); format: cell membranes, Mus musculus, ICR, Brain, Membrane; details: Not Active = under 50% inhibition at 10 µM
[10] = DRUGMATRIX: Phosphodiesterase PDE3 enzyme inhibition (substrate: [3H]cAMP + cAMP); format: tissue-based, Homo sapiens; details: platelet; Not Active = under 50% inhibition at 10 µM
[11] = DRUGMATRIX: Platelet-Derived Growth Factor (PDGF) radioligand binding (ligand: [125I] PDGF); format: cell-based; details: nih3t3; Not Active = under 50% inhibition at 10 µM
[12] = molecular target: T5, Neutrophil elastase (Homo sapiens, UniProt P08246); format: tissue-based;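 further: inhibition of neutrophil elastase enzyme activity, measured with a p-nitroanilide-linked peptide substrate; in other assays of this panel Not Active means under 50% inhibition at 10 µM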
T5 sequence (P08246 whole entry): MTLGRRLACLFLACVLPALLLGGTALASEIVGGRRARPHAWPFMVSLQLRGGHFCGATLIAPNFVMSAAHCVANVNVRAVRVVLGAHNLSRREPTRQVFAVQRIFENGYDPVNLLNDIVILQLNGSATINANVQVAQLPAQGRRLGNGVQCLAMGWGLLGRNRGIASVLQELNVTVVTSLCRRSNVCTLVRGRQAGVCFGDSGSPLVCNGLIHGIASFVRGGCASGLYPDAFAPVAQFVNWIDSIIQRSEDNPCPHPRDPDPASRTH

[13] = DRUGMATRIX: Purinergic P2X radioligand binding (ligand: [3H] alpha, beta-Methylene-ATP); format: cell membranes, Oryctolagus cuniculus, New Zealand albino, Urinary bladder, Membrane; details: Not Active = under 50% inhibition at 10 µM
[14] = molecular target: Estrogen receptor beta (Homo sapiens, UniProt Q92731); details: sf9; further: in other assays of this panel Not Active means under 50% inhibition at 10 µM
Chain of Estrogen receptor beta (Q92731 whole entry): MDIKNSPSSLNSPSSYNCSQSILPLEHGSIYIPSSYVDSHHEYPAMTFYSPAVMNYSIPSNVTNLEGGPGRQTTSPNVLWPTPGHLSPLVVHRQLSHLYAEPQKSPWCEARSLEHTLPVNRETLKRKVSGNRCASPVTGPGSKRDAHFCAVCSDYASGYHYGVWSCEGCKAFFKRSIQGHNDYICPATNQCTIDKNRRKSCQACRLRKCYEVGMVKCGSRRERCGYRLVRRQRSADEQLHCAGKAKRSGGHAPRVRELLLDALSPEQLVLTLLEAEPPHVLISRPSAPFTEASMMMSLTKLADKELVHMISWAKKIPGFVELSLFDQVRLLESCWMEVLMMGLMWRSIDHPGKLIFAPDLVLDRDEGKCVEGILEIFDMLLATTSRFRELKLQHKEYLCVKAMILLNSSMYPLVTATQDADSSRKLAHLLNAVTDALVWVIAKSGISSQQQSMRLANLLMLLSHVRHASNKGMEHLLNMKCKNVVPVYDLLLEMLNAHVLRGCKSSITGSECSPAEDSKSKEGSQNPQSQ

| Structure (SMILES) | IC50 ([1]; sf9) | IC50 [2] | IC50 [3] | IC50 ([4]; cho) | IC50 [5] | Ki [5] | IC50 [6] | Ki [6] | IC50 [7] | IC50 ([8]; bti-tn-5b1-4) | IC50 [9] | Ki [9] | IC50 [10] | Ki [10] | IC50 [11] | Ki [11] | IC50 [12] | IC50 [13] | Ki [13] | IC50 [14] | further results |
| --- | --- | --- | --- | --- | --- | --- | --- | --- | --- | --- | --- | --- | --- | --- | --- | --- | --- | --- | --- | --- | --- |
| COc1ccc2cc(CC(=O)O)ccc2c1 | Not Active | Not Active | Not Active | Not Active | Not Active | Not Active | Not Active | Not Active | Not Active | Not Active | Not Active | Not Active | Not Active | Not Active | Not Active | Not Active | Not Active | Not Active | Not Active | Not Active |  |
| CC(C)NC[C@H](O)COc1cccc2[nH]ccc12 | Not Active | Not Active | Not Active | Not Active | Not Active | Not Active | Not Active | Not Active | Not Active | Not Active | Not Active | Not Active | Not Active | Not Active | Not Active | Not Active | Not Active | Not Active | Not Active | Not Active |  |
| c1ccc2c(c1)cc1ccc3cccc4ccc2c1c34 | Not Active | Not Active | Not Active | Not Active | Not Active | Not Active | Not Active | Not Active | Not Active |  | Not Active | Not Active | Not Active | Not Active | Not Active | Not Active | Not Active | Not Active | Not Active | Not Active | IC50 ([8]; read-out: IC50): 5.97 µM |
| C=C1C(=O)O[C@@H]2C3O[C@]3(C)CC/C=C(\C)CC[C@@H]12 (stereo partly specified) | Not Active | Not Active | Not Active | Not Active | Not Active | Not Active | Not Active | Not Active | Not Active | Not Active | Not Active | Not Active | Not Active | Not Active | Not Active | Not Active | Not Active | Not Active | Not Active | Not Active |  |
| CC(/C=C1\SC(=S)N(CC(=O)O)C1=O)=C\c1ccccc1 | Not Active | Not Active | Not Active | Not Active | Not Active | Not Active | Not Active | Not Active | Not Active | Not Active | Not Active | Not Active | Not Active | Not Active | Not Active | Not Active | Not Active | Not Active | Not Active | Not Active |  |
| CCCCCCCCCc1ccc(O)cc1 [4-NONYLPHENOL] |  | Not Active | Not Active | Not Active | Not Active | Not Active | Not Active | Not Active | Not Active | Not Active | Not Active | Not Active | Not Active | Not Active | Not Active | Not Active | Not Active | Not Active | Not Active | Not Active | IC50 ([1]; read-out: IC50): 6.78 µM; Ki [1]: 2.54 µM |
| CNCCC=C1c2ccccc2CCc2ccccc21 [NORTRIPTYLINE] |  | Not Active | Not Active |  | Not Active | Not Active | Not Active | Not Active | Not Active | Not Active | Not Active | Not Active | Not Active | Not Active | Not Active | Not Active | Not Active | Not Active | Not Active | Not Active | IC50 ([4]; read-out: IC50): 0.539 µM; Ki ([4]; read-out: Ki): 0.269 µM |
| COc1ccc(CN(CCN(C)C)c2ccccn2)cc1 [PYRILAMINE] |  | Not Active | Not Active | Not Active | Not Active | Not Active | Not Active | Not Active | Not Active | Not Active | Not Active | Not Active | Not Active | Not Active | Not Active | Not Active | Not Active | Not Active | Not Active |  | IC50 ([1]; read-out: IC50): 2.98 µM; Ki [1]: 1.12 µM |
